Entries after “also recorded” stand apart in the source; their conditions may differ. Read-outs that look alike come from different tables or passages of the source.
Legend:
P-gp [1] = biological target: T1, P-gp (Homo sapiens, UniProt P08183); design: MDR phenotype mainly characterized by the overexpression of ABCB1/P-gp; endogenous in cells; host or cells: K562/Dox (formerly Lucena 1), drug-selected and kept under 60 nM Dox; parental K562 used as the low-P-gp control; conditions: cited from earlier work
MA-104 cells = system: MA-104 cells; design: method as in Delou et al. 2009[44]; conditions: 22 µM; ref Delou et al. 2009[44]; cited from earlier work
P-gp [2] = biological target: T1, P-gp; experiment: Rhodamine 123 intracellular accumulation assay in K562/Dox (flow cytometry); conditions: for FAR (fluorescence activity ratio): Rho123, K562/Dox; for MEC (minimum effective concentration) / dose-dependent behavior, b: Rho123 accumulation, K562/Dox
K562 cells [3] = experiment: Rhodamine 123 intracellular accumulation assay in K562 (flow cytometry); conditions: K562, maximum concentration assayed
K562 cells [4] = experiment: Doxorubicin resistance reversal assay in K562 (MTT); format: cell-based; conditions: K562, 1.56 µM
Procedure: (§1) Simultaneously, viability controls were run with no addition of the dissolution solvent. The cells were incubated at 37 °C at 5% CO2 for 48 h and the same protocol described above was followed. The potency of the compounds was established by means of the fold reversal (FR) values calculated from dividing the IC50 of Dox alone by the IC50 of Dox with different concentrations of each compound tested.

erythrocytes = experiment: Erythrocyte hemolysis assay; format: cell-based, human; conditions: maximum tested concentration of 50 µM, 1 h
Procedure: For the erythrocyte hemolysis assay, the red blood cell suspension was obtained from fresh heparinized blood collected from healthy human volunteer donors, without receiving any treatment. The blood sample was centrifuged at 2,500 rpm for 10 min at 4 °C. The supernatant was discarded, and the red blood cell pellet was subjected to two consecutive washes with sterile PBS, using the same centrifugation conditions. An aliquot of the pellet obtained was resuspended in PBS (3% v/v). The compounds were incubated at decreasing concentrations starting from 50 µM with the suspension at 37 °C for 1 h. Controls with 1% DMSO and no solvent were included.

K562 cells [5] = experiment: MTT colorimetric assay, cytotoxicity on sensitive K562; format: cell-based; conditions: for IC50: MTT, 48 h, K562
Procedure: (§2) This colorimetric technique is based on the ability of viable cells to capture MTT and reduce it through the mitochondrial enzyme succinic dehydrogenase to its insoluble form, formazan crystals. […] After this time, the plate was centrifuged at 2000 rpm for 10 min, and 100 µL of DMSO was added to dissolve the formazan crystals formed. Absorbance (Abs) was read at a wavelength of 595 nm in an iMark microplate reader (Bio-Rad, USA).

K562/Dox cells [6] = experiment: Doxorubicin resistance reversal assay in K562/Dox (MTT); conditions: for FR (fold reversal): Dox co-administered
Procedure: as §1

K562 cells [7] = experiment: Doxorubicin intracellular accumulation assay in K562 (flow cytometry); conditions: K562, versus negative control
P-gp [8] = biological target: T1, P-gp; experiment: Doxorubicin intracellular accumulation assay in K562/Dox (flow cytometry)
[9] = Cytotoxicity on peripheral blood mononuclear cells (MTT); format: cell-based, human; conditions: human
Procedure: (§3) . PBMC were isolated by the Ficoll-Hypaque density gradient centrifugation technique of fresh heparinized blood from healthy human volunteers. The protocol was previously approved by the Catholic University of Córdoba Research Ethics Board. Signed informed consents were obtained from donors. All methods were performed in accordance with the relevant guidelines and regulations. Briefly, 1 × 10^5 cells/well in a 96-well plate were incubated with 10 µg/mL PHA, in the presence of the corresponding concentrations of the compounds or 0.5% v/v DMSO (negative control) for 48 h, and processed as above described for the MTT method. The percentages of inhibition on cell proliferation were determined by comparison with negative controls, and the corresponding IC50 values were calculated from the best fit of the concentration-dependent inhibition curves in GraphPad Prism 7.

K562/Dox cells [10] = experiment: MTT colorimetric assay, cytotoxicity on resistant K562/Dox; format: cell-based; conditions: K562/Dox, MTT; for IC50: Homo sapiens, K562, 48 h, 48 h, read-out: IC50 K562/Dox
Procedure: as §2, with “crystals. The target compounds dissolved in DMSO (0.5% v/v as final concentration which was non-toxic to cells) at a maximum concentration of 50 µM were exposed to 5 × 10^4 cells distributed in a 96-well plate and incubated for 48 h.” for “crystals.”, “USA). The percentages of cytotoxicity were determined as compared to DMSO treated control cells, which were considered 100% viable as showing the same level of growth as the untreated cells.” for “USA).”

[11] = system: peripheral blood mononuclear cells (PBMC); experiment: Cytotoxicity on peripheral blood mononuclear cells (MTT); format: cell-based, human; conditions: MTT, 48 h, up to 50 µM
Procedure: as §3

T1 sequence (P08183 whole entry): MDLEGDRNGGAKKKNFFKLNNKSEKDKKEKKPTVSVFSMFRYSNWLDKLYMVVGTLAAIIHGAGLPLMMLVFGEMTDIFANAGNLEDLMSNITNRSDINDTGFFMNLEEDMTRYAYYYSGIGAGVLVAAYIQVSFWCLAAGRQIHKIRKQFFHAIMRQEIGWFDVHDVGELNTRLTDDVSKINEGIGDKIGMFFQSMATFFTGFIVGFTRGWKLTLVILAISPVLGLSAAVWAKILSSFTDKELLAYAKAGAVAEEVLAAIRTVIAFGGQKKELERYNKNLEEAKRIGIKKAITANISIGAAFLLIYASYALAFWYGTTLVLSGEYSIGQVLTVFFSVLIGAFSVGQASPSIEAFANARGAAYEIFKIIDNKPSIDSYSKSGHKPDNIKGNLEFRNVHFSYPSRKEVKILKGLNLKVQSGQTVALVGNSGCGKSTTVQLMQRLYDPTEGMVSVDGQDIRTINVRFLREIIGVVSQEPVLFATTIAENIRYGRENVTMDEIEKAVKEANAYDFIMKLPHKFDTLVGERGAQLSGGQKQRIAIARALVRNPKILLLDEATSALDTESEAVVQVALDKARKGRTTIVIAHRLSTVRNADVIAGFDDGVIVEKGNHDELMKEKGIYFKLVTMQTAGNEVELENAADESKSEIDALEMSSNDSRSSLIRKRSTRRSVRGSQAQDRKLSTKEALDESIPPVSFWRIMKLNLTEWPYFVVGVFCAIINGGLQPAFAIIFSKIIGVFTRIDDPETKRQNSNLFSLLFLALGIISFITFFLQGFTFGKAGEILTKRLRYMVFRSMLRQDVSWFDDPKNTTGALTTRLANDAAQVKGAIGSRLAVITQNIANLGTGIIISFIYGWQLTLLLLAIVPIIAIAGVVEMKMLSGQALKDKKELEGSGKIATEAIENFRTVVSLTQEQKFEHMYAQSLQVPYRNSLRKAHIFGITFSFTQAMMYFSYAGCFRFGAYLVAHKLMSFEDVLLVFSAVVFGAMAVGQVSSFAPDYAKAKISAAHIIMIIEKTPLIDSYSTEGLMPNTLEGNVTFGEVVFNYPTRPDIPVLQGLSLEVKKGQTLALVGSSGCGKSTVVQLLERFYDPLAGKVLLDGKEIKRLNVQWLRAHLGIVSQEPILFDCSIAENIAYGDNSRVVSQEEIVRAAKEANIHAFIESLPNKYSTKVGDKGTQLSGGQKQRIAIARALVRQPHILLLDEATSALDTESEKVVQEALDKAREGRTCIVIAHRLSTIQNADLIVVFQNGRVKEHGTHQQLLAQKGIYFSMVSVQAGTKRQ

C=C(C)[C@@H]1CC[C@]2(C)CC[C@]3(C)[C@H](CC[C@@H]4[C@@]5(C)CC[C@H](O)C(C)(C)[C@@H]5CC[C@]43C)[C@@H]12 [lupeol]
effective concentration, P-gp inhibition (P-gp [1]): 100 µM

C=C(C)[C@@H]1CC[C@]2(C(=O)O)CC[C@]3(C)[C@H](CC[C@@H]4[C@@]5(C)CC[C@H](O)C(C)(C)[C@@H]5CC[C@]43C)[C@@H]12 [Compound 2, betulinic acid, reference compound]
Rho123 accumulation in MA-104 cells (MA-104 cells): not to alter Rho123 accumulation
FAR (fluorescence activity ratio) (P-gp [2]; 50 µM): 1.05 ± 0.04

C=C(C)[C@@H]1CC[C@]2(COC(=O)N3CCN(C)CC3)CC[C@]3(C)[C@H](CC[C@@H]4[C@@]5(C)CC[C@H](O)C(C)(C)[C@@H]5CC[C@]43C)[C@@H]12 [Compound 6i]
Rho123 accumulation in K562 (K562 cells [3]): did not increase Rho123 accumulation
reversal effect on parental K562 (K562 cells [4]): did not show a reversal effect
erythrocyte hemolysis (erythrocytes): devoid of toxic effects; also recorded: Neither compound induced erythrocyte hemolysis
toxicity (K562 cells [5]; 50 μM, K562, MTT): more than 55%
IC50 (K562 cells [5]; Homo sapiens, K562, 48 h): 19.1 µM
IC50 (K562 cells [5]): 19.1 ± 0.87 µM
FAR (fluorescence activity ratio) (P-gp [2]; 0.19 µM): 1.08 ± 0.05
FAR (fluorescence activity ratio) (P-gp [2]; 0.78 µM): 1.30 ± 0.06
FAR (fluorescence activity ratio) (P-gp [2]; 1.56 µM): 1.41 ± 0.14
FAR (fluorescence activity ratio) (P-gp [2]; 3.12 µM): 1.71 ± 0.06
FAR (fluorescence activity ratio) (P-gp [2]; 6.25 µM): 2.04 ± 0.05
MEC (minimum effective concentration) (P-gp [2]): 0.39 µM
dose-dependent behavior, b (P-gp [2]): 40.14
potency for restoring the cytotoxicity of Dox relative to compound 1 (times) (K562/Dox cells [6]): nearly twice
MEC, Dox resistance reversal (K562/Dox cells [6]; K562/Dox): 0.19 µM
FR (fold reversal) (K562/Dox cells [6]; K562/Dox, 0.19 µM): 1.39 ± 0.07
FR (fold reversal) (K562/Dox cells [6]; K562/Dox, 0.78 µM): 1.63 ± 0.06
FR (fold reversal) (K562/Dox cells [6]; K562/Dox, 1.56 µM): 2.69 ± 0.39
Dox accumulation in K562 (K562 cells [7]): did not increase Dox accumulation
MEC, Dox accumulation (P-gp [8]): 0.098 µM
FAR, Dox accumulation (P-gp [8]; 25 µM): 1.27 ± 0.03
IC50 at 48 h [9]: 26.4 ± 2.88 µM
viability at 48 h, 50 µM [9]: 64%
toxicity (K562/Dox cells [10]; 50 μM): more than 55%
IC50 (K562/Dox cells [10]): 33.91 ± 0.09 µM

C=C(C)[C@@H]1CC[C@]2(COC(=O)NCCc3cc(OC)c(OC)c(OC)c3)CC[C@]3(C)[C@H](CC[C@@H]4[C@@]5(C)CC[C@H](O)C(C)(C)[C@@H]5CC[C@]43C)[C@@H]12 [Compound 6g]
Rho123 accumulation in K562 (K562 cells [3]): did not increase Rho123 accumulation
reversal effect on parental K562 (K562 cells [4]): slight increase in Dox toxicity
erythrocyte hemolysis (erythrocytes): devoid of toxic effects; also recorded: Neither compound induced erythrocyte hemolysis
IC50 (K562 cells [5]; Homo sapiens, K562, 48 h): > 50 µM
FAR (fluorescence activity ratio) (P-gp [2]; 0.098 µM): 1.00 ± 0.04
FAR (fluorescence activity ratio) (P-gp [2]; 0.19 µM): 1.09 ± 0.03
FAR (fluorescence activity ratio) (P-gp [2]; 0.78 µM): 1.33 ± 0.14
FAR (fluorescence activity ratio) (P-gp [2]; 1.56 µM): 1.61 ± 0.23
FAR (fluorescence activity ratio) (P-gp [2]; 3.12 µM): 2.05 ± 0.36
FAR (fluorescence activity ratio) (P-gp [2]; 6.25 µM): 2.62 ± 0.49
FAR (fluorescence activity ratio) (P-gp [2]; 25 µM): 3.47 ± 0.61
FAR (fluorescence activity ratio) (P-gp [2]; 50 µM): 4.02 ± 0.70
MEC (minimum effective concentration) (P-gp [2]): 0.19 µM
dose-dependent behavior, b (P-gp [2]): 64.49
MEC, Dox resistance reversal (K562/Dox cells [6]; K562/Dox): 0.024 µM
potency for restoring the cytotoxicity of Dox relative to compound 1 (times) (K562/Dox cells [6]; K562/Dox): 16
FR (fold reversal) (K562/Dox cells [6]; K562/Dox, 0.024 µM): 1.17 ± 0.05
FR (fold reversal) (K562/Dox cells [6]; K562/Dox, 0.78 µM): 3.98 ± 0.71
FR (fold reversal) (K562/Dox cells [6]; K562/Dox, 1.56 µM): 5.37 ± 1.36
Dox accumulation in K562 (K562 cells [7]): did not increase Dox accumulation
MEC, Dox accumulation (P-gp [8]): 0.098 µM
FAR, Dox accumulation (P-gp [8]; 50 µM): 1.26 ± 0.02
cytotoxicity on PBMC [11]: devoid of toxic effects; also recorded: did not reveal cytotoxicity
IC50 (K562/Dox cells [10]): > 50 µM

C=C(C)[C@@H]1CC[C@]2(COC(=O)NCCN3CCN(C(=O)OC(C)(C)C)CC3)CC[C@]3(C)[C@H](CC[C@@H]4[C@@]5(C)CC[C@H](O)C(C)(C)[C@@H]5CC[C@]43C)[C@@H]12 [Compound 6j]
IC50 (K562 cells [5]; Homo sapiens, K562, 48 h): > 50 µM
FAR (fluorescence activity ratio) (P-gp [2]; 6.25 µM): 1.08 ± 0.04
FAR (fluorescence activity ratio) (P-gp [2]; 12.50 µM): 1.25 ± 0.02
FAR (fluorescence activity ratio) (P-gp [2]; 25 µM): 1.68 ± 0.03
FAR (fluorescence activity ratio) (P-gp [2]; 50 µM): 2.57 ± 0.11
MEC (minimum effective concentration) (P-gp [2]): 12.50 µM
IC50 (K562/Dox cells [10]): > 50 µM

— paper PMC10762177, “Novel betulin derivatives as multidrug reversal agents targeting P-glycoprotein” (Scientific Reports, 2024)
